According to PubChem BioAssay (NCI):
Where “and” joins values, the source holds several entries; their conditions need not be identical. Equal entries are not always repeated.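 How tested: cells in 96-well plates exposed to compound for 48 hours at five concentrations. GI50 is the concentration that inhibits growth by half. Definition used: TGI = concentration required for complete inhibition of growth.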

Key:
Experiment in all cases: inhibition of tumour cell growth, NCI panel, 48 h
UACC-257 melanoma = system: UACC-257 melanoma
TK-10 renal = system: TK-10 renal
NCI/ADR-RES ovarian = system: NCI/ADR-RES ovarian
NCI-H23 lung = system: NCI-H23 lung
COLO 205 colon = system: COLO 205 colon
DU-145 prostate = system: DU-145 prostate
RPMI-8226 leukemia = system: RPMI-8226 leukemia
SR leukemia = system: SR leukemia
CCRF-CEM leukemia = system: CCRF-CEM leukemia
K-562 leukemia = system: K-562 leukemia

Compound	TGI (UACC-257 melanoma)	TGI (TK-10 renal)	TGI (NCI/ADR-RES ovarian)	TGI (NCI-H23 lung)	TGI (COLO 205 colon)	TGI (DU-145 prostate)	TGI (RPMI-8226 leukemia)	TGI (SR leukemia) [µM]	TGI (CCRF-CEM leukemia)	TGI (K-562 leukemia) [µM]	GI50 (UACC-257 melanoma)	GI50 (TK-10 renal)	GI50 (NCI/ADR-RES ovarian)	GI50 (NCI-H23 lung)	GI50 (COLO 205 colon)	GI50 (DU-145 prostate)	GI50 (RPMI-8226 leukemia)	GI50 (SR leukemia) [µM]	GI50 (CCRF-CEM leukemia)	GI50 (K-562 leukemia)
C1CSCCSCCCSCCSCCCSCCSCCCSCCSC1	> 100 µM	> 100 µM	> 100 µM	> 100 µM	> 100 µM	> 100 µM	> 100 µM	> 100	> 100 µM	> 100	–	–	–	–	–	–	–	–	–	–
CN1CCc2nc3sc(C(N)=O)c(N)c3c(-c3cccs3)c2C1	> 100 µM	13.1 µM	98.8 µM	12.6 µM	3.66 µM	86.9 µM	> 100 µM	7.31	> 100 µM	> 100	4 µM	3.32 µM	3.69 µM	2.87 µM	1.43 µM	3.91 µM	4.41 µM	1.8	3.77 µM	4.99 µM
Fc1ccc(/C=N/n2c(-c3ccc(F)c(Cl)c3)n[nH]c2=S)cc1	83 µM	51 µM	59.4 µM	38.2 µM	> 100 µM	> 100 µM	43.2 µM	27.9	96.6 µM	36.6	30.6 µM	24.1 µM	23.4 µM	18.8 µM	37.3 µM	41.5 µM	19.8 µM	12.9	32.2 µM	19.3 µM
CCN1C(=O)N(CC)C2C1NN=c1s/c(=C\c3ccc(F)cc3)c(=O)n12 (configuration not stated)	> 100 µM	> 100 µM	> 100 µM	> 100 µM	1.43 µM	> 37.8 µM	> 63.2 µM	> 37.3	> 100 µM	> 100	42.9 µM	10.5 µM	0.168 µM	0.547 µM	0.277 µM	0.3 µM	0.326 µM	0.0474	0.265 µM	0.0566 µM
Clc1ccc(C2ON=C(c3ccccc3)N2C23CC4CC(CC(C4)C2)C3)cc1 (configuration not stated)	> 10 µM	> 10 µM	> 10 µM	> 10 µM	> 10 µM	> 10 µM	> 10 µM	> 10	> 10 µM	> 10	–	–	–	–	–	–	–	–	–	–
COc1cc(C(=O)c2cc(C)c3[nH]c4ccc(O)cc4c3c2C)cc(OC)c1OC	> 100 µM	> 100 µM	–	> 40 µM	0.11 µM	> 26.5 µM	> 100 µM	> 100	> 100 µM	> 100	6.42 µM	4.24 µM	< 0.01 µM	0.0335 µM	0.0298 µM	0.0351 µM	0.0228 µM	< 0.01	0.0254 µM	< 0.01 µM
COc1ccc(/C=C(\C)[N+](=O)[O-])cc1OC	3.5 µM	3.12 µM	13.4 µM	7.13 µM	4.46 µM	3.22 µM	5.59 µM	> 100	–	> 100	1.88 µM	1.55 µM	3.55 µM	2.6 µM	2.23 µM	1.79 µM	2.3 µM	2.04	–	2.17 µM
CCC(=O)Nc1ccc(N2C(=O)/C(=C/c3ccc(OC)cc3)N=C2c2ccccc2)cc1	> 50 µM	> 50 µM	> 50 µM	> 50 µM	> 50 µM	> 50 µM	> 50 µM	> 50	> 50 µM	> 50	22.2 µM	22.8 µM	9.77 µM	13.3 µM	9.23 µM	10.4 µM	4.67 µM	1.4	> 50 µM	5.57 µM
COc1ccc(/C=C(/C)[N+](=O)[O-])cc1OC	2.98 µM and 1.92 µM	3.5 µM and 2.7 µM	9.77 µM and 13.9 µM	4.24 µM and 4.6 µM	3.28 µM and 3.05 µM	5.72 µM and 5.67 µM	3.43 µM and 5.18 µM	7	5.31 µM and 5.72 µM	> 100	1.56 µM and 0.6 µM	1.76 µM and 1.32 µM	2.97 µM and 3.25 µM	1.9 µM and 1.98 µM	1.78 µM and 1.5 µM	2.42 µM and 2.45 µM	0.971 µM and 1.6 µM	1.26	1.96 µM and 0.786 µM	1.31 µM and 1.72 µM
CN1CCN(CCCCCN=c2cc3c(=O)n(CCCCCN4CCN(C)CC4)c(=O)c4c(NCCCCCN5CCN(C)CC5)cc5c(O)n(CCCCCN6CCN(C)CC6)c(=O)c2c5c4-3)CC1	6.56 µM	77.2 µM	> 100 µM	46.3 µM	8.07 µM	10.3 µM	11.3 µM	25.1	26 µM	> 100	2.6 µM	10.6 µM	> 100 µM	6.65 µM	2.31 µM	3.08 µM	3.02 µM	4.01	2.69 µM	3.62 µM
